Assay results from patent publication US4424226A, “Pyridobenzodiazepinones, pharmaceutical compositions thereof and method of use thereof” (Dr. Karl Thomae GmbH, priority 1982, dated 1984).

Experiments:
muscarinic receptors [1] = assay: Oxotremorine test: inhibition of oxotremorine-induced secretion of saliva; type: in vivo, rat (female albino, Crl:COBS-CD (SD) BR); conditions: i.v., 15 min before oxotremorine 0.083 mg/kg i.v.; rats
Procedure: (§1) Oxotremorine, a specific agonist for muscarinic receptors produces lesions in the mucous membrane of the stomach in rats and increases their secretion of saliva. This test method was chosen so that any selective activity of an antimuscarinic substance on the stomach could be identified.
(§2) Ten female albino rats (of the Crl:COBS-CD (SD) BR strain) with a body weight of from 120 to 150 gm apiece were used in each treatment group and were kept without food for 24 hours before the start of the test but given free access to drinking water.
(§3) To determine, in preliminary tests, the muscarinic effect of oxotremorine on each of the symptoms studied, a dosage/activity curve was drawn up with at least three dosages for each symptom.
(§4) When the antimuscarinic substances were tested, the dosage of oxotremorine which triggered the symptom in question in 90 to 100% of the animals in the preliminary tests was used.
Secretion of saliva 0.083 mg/kg i.v.
Each antimuscarinic substance was administered intravenously in uniformly graduated doses 15 minutes before the oxotremorine was administered. Control groups were given corresponding quantities of the solvent and suspension agent instead of the test substance. […]
(§5) The ED50 values were determined using the method described by Litchfield and Wilcoxon (J. Pharmacol. Exp. Ther. 96, 99, 1949).

[2] = molecular target: T1, muscarinic receptors (heart) (Rattus norvegicus, UniProt P10980); assay: Binding to muscarinic receptors, whole heart (inhibition of specific 3H-NMS binding); design: species or system rat (Sprague-Dawley); conditions: 0.3 nM 3H-NMS, 45 min, 30° C., pH 7.4, read-out: Receptor Binding Tests IC50, Heart
T1 construct: The whole heart was cut up with scissors; All the organs were then homogenized in a Potter apparatus; from tissue; host or cells: whole heart of male Sprague-Dawley rats, homogenate
T1 sequence (P10980 1-466): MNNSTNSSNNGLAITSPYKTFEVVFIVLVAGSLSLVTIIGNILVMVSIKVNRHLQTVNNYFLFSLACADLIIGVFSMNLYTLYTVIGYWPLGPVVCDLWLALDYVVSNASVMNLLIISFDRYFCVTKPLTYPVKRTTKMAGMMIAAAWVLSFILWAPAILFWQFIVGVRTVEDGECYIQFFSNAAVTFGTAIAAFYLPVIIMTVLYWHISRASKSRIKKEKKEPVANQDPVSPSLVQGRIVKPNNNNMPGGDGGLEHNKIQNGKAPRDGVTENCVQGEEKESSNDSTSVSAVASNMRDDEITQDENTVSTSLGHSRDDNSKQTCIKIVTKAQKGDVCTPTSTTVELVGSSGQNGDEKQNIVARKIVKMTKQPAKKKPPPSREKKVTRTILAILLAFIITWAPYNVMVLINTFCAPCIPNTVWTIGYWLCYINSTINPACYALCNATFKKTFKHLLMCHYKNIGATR
Procedure: (§6) 3. Studies of binding to muscarinic receptors: Determination of the IC50 value
(§7) The organ donors were male Sprague-Dawley rats with a body weight of from about 180 to 220 gm each. After the heart, stomach, and cerebral cortex had been removed, the remainder of the operation was carried out in ice-cold Hepes-HCl buffer (pH 7.4; 100 m molar NaCl, 10 m molar MgCl2). The smooth muscle of the fundus of the stomach was separated from the mucous membrane of the stomach and subjected to preliminary homogenization. The whole heart was cut up with scissors. All the organs were then homogenized in a Potter apparatus.
(§8) For the bonding test, the homogenized organs were diluted as follows:
(§9) The homogenized organ preparations were incubated at a specific concentration of the radioligand and with a series of concentrations of the non-radioactive test substances in an Eppendorf centrifuge tube at 30° C. The duration of incubation was 45 minutes. The substance 0.3 n molar ^3 H-N-methylscopolamine (^3 H-NMS) was used as the radioligand. After incubation had been brought to an end by centrifuging at 14,000 g, the radioactivity in the pellet was determined. […] The proportion of non-specific bonding was defined as the radioactivity which was bonded in the presence of 1μ molar quinuclidinylbenzylate. […] The IC50 values of the non-labelled test substances were determined graphically. […]

[3] = Testing for mydriasis (effect on pupil size); conditions: rat, in vivo, iv; rats; pupil observed 10 minutes
Procedure: The effect of the test substances on the pupil size in rats was investigated as follows:
The substances were administered intravenously to groups of 10 animals in at least three uniformly graduated doses. The pupil size was then observed for 10 minutes to see if there were any changes (mydriasis or miosis). […] The percentage of test animals in which mydriasis occurred was determined. The ED50 values were again determined during the method of LITCHFIELD and WILCOXON (see above).

[4] = molecular target: muscarinic receptors (cerebral cortex); assay: Binding to muscarinic receptors, cerebral cortex (inhibition of specific 3H-NMS binding); design: species or system rat (Sprague-Dawley); conditions: 0.3 nM 3H-NMS, 45 min, 30° C., pH 7.4, read-out: Receptor Binding Tests IC50, Cortex
Procedure: as §6, §7, §8, §9

muscarinic receptors [5] = assay: Oxotremorine test: protection against oxotremorine-induced lesions in the mucous membrane of the stomach; type: in vivo, rat (female albino, Crl:COBS-CD (SD) BR); conditions: i.v.; rats; oxotremorine 0.62 mg/kg i.v. after neostigmine 1 mg/kg oral; % animals without lesions
Procedure: as §1, §2, §3, §4
Each antimuscarinic substance was administered intravenously in uniformly graduated doses 15 minutes before the oxotremorine was administered. Control groups were given corresponding quantities of the solvent and suspension agent instead of the test substance. Immediately after the oxotremorine was administered, the animals were placed in a glass case for 15 minutes and observed.
as §5
The effects on lesions of the mucous membrane of the stomach were evaluated as follows:
The lesions of the gastric mucous membrane were produced by intravenous injection of 0.62 mg/kg of oxotremorine 30 minutes after the oral administration of 1 mg/kg of neostigmine (a cholinesterase inhibitor). […] The protective effect of the test substances was expressed as the percentage inhibition (percentage of animals without lesions). The ED50 and ED70 values were determined using the method of LITCHFIELD and WILCOXON (see above).

[6] = molecular target: T2, muscarinic receptors (smooth muscle of the fundus of the stomach) (Rattus norvegicus); assay: Binding to muscarinic receptors, smooth muscle of the fundus of the stomach (inhibition of specific 3H-NMS binding); design: species or system rat (Sprague-Dawley); conditions: 0.3 nM 3H-NMS, 45 min, 30° C., pH 7.4, read-out: Receptor Binding Tests IC50, Smooth Muscle Fundus of Stomach
T2 construct: The smooth muscle of the fundus of the stomach was separated from the mucous membrane of the stomach; from tissue; host or cells: smooth muscle of the stomach fundus of male Sprague-Dawley rats, homogenate
Procedure: as §6, §7, §8
Smooth muscle of the fundus
as §9

Row | Compound | Oxotremorine Test, Inhibition of Salivation ED50 (muscarinic receptors [1]) | IC50 [2] | ED50 at 10 min [3] | IC50 [4] | Oxotremorine Test, Anti-ulcerative Effect ED50 (muscarinic receptors [5]) | Oxotremorine Test, Anti-ulcerative Effect ED70 (muscarinic receptors [5]) | IC50 [6]
1 | CN1CC=C(CC(=O)N2c3ccccc3C(=O)Nc3cccnc32)CC1 [A, 5,11-dihydro-11-[(1-methyl-1,2,5,6-tetrahydro-4-pyridinyl)acetyl]-6H-pyrido[2,3-b][1,4]benzodiazepin-6-one] | 28 µg/kg | 170 nM | 0.074 mg/kg | 50 nM | 1.1 µg/kg | 2 µg/kg | 200 nM
2 | CN1[C@@H]2CC[C@H]1C[C@@H](CC(=O)N1c3ccccc3C(=O)Nc3cccnc31)C2 [B, endo-5,11-dihydro-11-[(8-methyl-8-azabicyclo[3.2.1]oct-3-yl)acetyl]-6H-pyrido[2,3-b][1,4]benzodiazepin-6-one] | 300 µg/kg | 150 nM | 0.22 mg/kg | 50 nM |  | 37 µg/kg | 700 nM
